According to patent publication US6737383B1, “Herbicidal oxadiazolidines” (priority 1999, dated 2004):

How the values were obtained:
[1] = test system: barnyardgrass; assay: Test A barnyardgrass; format: in vivo, Echinochloa crus-galli; details: 0 to 10 scale where 0 is no effect and 10 is complete control
Outline: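 Ratings came from visual comparison with untreated plants about eleven days after treatment, scored 0 for no effect through 10 for complete control. Both soil-drench preemergence and runoff-spray postemergence applications were made at the same time.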

[2] = test system: giant foxtail; assay: Test C postemergence giant foxtail; format: in vivo, Setaria faberii; details: 0 to 100 scale, 0 no effect, 100 complete control
Outline: (§1)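 Soil: sandy loam/potting mix 60:40. Treatment: postemergence, solvent + surfactant formulation. Readout: visual control score 0–100 vs untreated at ~14–21 days.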

[3] = test system: purple nutsedge; assay: Test C postemergence purple nutsedge; format: in vivo, Cyperus rotundus; details: 0 to 100 scale, 0 no effect, 100 complete control
Experimental: Compounds evaluated in this test were formulated in a non-phytotoxic solvent mixture which included a surfactant and applied to plants that were grown for various periods of time before treatment (postemergence application). A mixture of sandy loam soil and greenhouse potting mix in a 60:40 ratio was used for the postemergence test.
Plantings of these crops and weed species were adjusted to produce plants of appropriate size for the postemergence test. All plant species were grown using normal greenhouse practices. Crop and weed species include arrowleaf sida (Sida rhombifolia), barnyardgrass (Echinochloa crus-galli), cocklebur (Xanthium strumarium), common ragweed (Ambrosia elatior), corn (Zea mays), cotton (Gossypium hirsutum), eastern black nightshade (Solanum ptycanthum), fall panicum (Panicum dichotomiflorum), field bindweed (Convolvulus arvensis), giant foxtail (Setaria faberii), hairy beggarticks (Bidens pilosa), ivyleaf morningglory (Ipomoea hederacea), johnsongrass (Sorghum halepense), ladysthumb smartweed (Polygonum persicaria), lambsquarters (Chenopodium album), large crabgrass (Digitaria sanguinalis), purple nutsedge (Cyperus rotundus), redroot pigweed (Amaranthus retroflexus), soybean (Glycine max), surinam grass (Brachiaria decumbens), velvetleaf (Abutilon theophrasti) and wild poinsettia (Euphorbia heterophylla).
Treated plants and untreated controls were maintained in a greenhouse for approximately 14, to 21 days, after which all treated plants were compared to untreated controls and visually evaluated. Plant response ratings, summarized in Table C, were based upon a 0 to 100 scale where 0 was no effect and 100 was complete control. A dash response (−) means no test result.

[4] = test system: soybean; assay: Test C postemergence soybean; format: in vivo, Glycine max; details: 0 to 100 scale, 0 no effect, 100 complete control
Outline: as §1

[5] = test system: sunflower; assay: Test E sunflower; format: in vivo, Helianthus annuus; details: Postemergence; for Plant response rating, Sunflower: 0 to 100 scale; for Sunflower plant response rating: Rate 250 g/ha, 0 to 100 scale where 0 is no effect and 100 is complete control
Experimental: […] All plant species were grown using normal greenhouse practices. Crop and weed species include annual bluegrass (Poa annua), blackgrass (Alopecurus myosuroides), black nightshade (Solanum nigra), chickweed (Stellaria media), common poppy (Papaver rhoeas), deadnettle (Lamium amplexicaule), downy brome (Bromus tectorum), field violet (Viola arvensis), galium (Galium aparine), green foxtail (Setaria viridis), Italian ryegrass (Lolium multiflorum), jointed goatgrass (Aegilops cylindrica), kochia (Kochia scoparia), lambsquarters (Chenopodium album), littleseed canarygrass (Phalaris minor), rape (Brassica napus), redroot pigweed (Amaranthus retroflexus), Russian thistle (Salsola kali), scentless chamomile (Matricaria inodora), spring barley (Hordeum vulgare), sugar beet (Beta vulgaris), sunflower (Helianthus annuus), ivyleaf speedwell (Veronica hederaefolia), spring wheat (Triticum aestivum), winter wheat (Triticum aestivum), wild buckwheat (Polygonum convolvulus), wild mustard (Sinapis arvensis), wild oat (Avena fatua), windgrass (Apera spica-venti) and winter barley (Hordeum vulgare).
Treated plants and untreated controls were maintained in a greenhouse for approximately 21 to 28 days, after which all treated plants were compared to untreated controls and visually evaluated. […] A dash response (-) means no test result.

[6] = test system: Abutilon theophrasti (ABUTH); assay: Test F preemergence, alone and in mixture with rimsulfuron, ABUTH; format: in vivo; details: 21 days after treatment, 0-100 scale
Experimental: (§2) Abutilon theophrasti (ABUTH), Chenopodium album (CHEAL), Amaranthus rudis (AMATA), Setaria faberii (SETFA), Panicum dichotomiflorum (PANDI), and Digitaria sanguinalis (DIGSA) were grown from seed in pots of an artificial potting mixture in a greenhouse. Compounds of the present invention were applied at 70 and 105 g ai/ha preemergence. Rimsulfuron was applied at 8.8 and 17.5 g ai/ha. Mixtures of the compounds of the present invention and rimsulfuron were also applied.
(§3) Following application, the plants were maintained by watering as needed. A fertilizer solution of Peter's 20-20-20 (10 pounds/5 gallons of water) plus Sprint 330, a Iron Chelate micronutrient, (113.5 grams/5 gallons of water) was injected into the water with an Anderson fertilizer injection system to provide approximately 219 ppm of nitrogen with each watering. Artificial lighting was used to supplement natural light to produce a 14 hour photoperiod and: an additional one hour light period was used between 1:00 am to 2:00 am for a night interruption. Greenhouse temperatures were targeted for 27° C. in the day and 21° C. at night. At 21 days after treatment, all plants were evaluated for injury as compared to control plants that were sprayed only with non-phytotoxic solvent.
(§4) Colby's equation was used to calculate the expected additive herbicidal effect of the mixtures of Compound 21 and the mixture partners listed above. […]

[7] = test system: Chenopodium album (CHEAL); assay: Test F preemergence, alone and in mixture with rimsulfuron, CHEAL; format: in vivo; details: 21 days after treatment, 0-100 scale
Experimental: as §2, §3, §4

[8] = test system: Amaranthus rudis (AMATA); assay: Test F preemergence, alone and in mixture with rimsulfuron, AMATA; format: in vivo; details: 21 days after treatment, 0-100 scale
Experimental: as §2, §3, §4

[9] = test system: Digitaria sanguinalis (DIGSA); assay: Test F preemergence, alone and in mixture with rimsulfuron, DIGSA; format: in vivo; details: 21 days after treatment, 0-100 scale
Experimental: as §2, §3, §4

[10] = Alone: Cmpd. rate 70, Rimsulfuron 0
[11] = Alone: Cmpd. rate 105, Rimsulfuron 0

| Structure (SMILES) | Plant response rating, Giant foxtail ([2]; Rate 140 g/ha) | Plant response rating, Giant foxtail ([2]; Rate 280 g/ha) | Plant response rating, Giant foxtail ([2]; Rate 560 g/ha) | Plant response rating, Giant foxtail ([2]; Rate 1120 g/ha) | Plant response rating, Purple nutsedge ([3]; Rate 140 g/ha) | Plant response rating, Purple nutsedge ([3]; Rate 280 g/ha) | Plant response rating, Purple nutsedge ([3]; Rate 560 g/ha) | Plant response rating, Purple nutsedge ([3]; Rate 1120 g/ha) | Plant response rating, Soybean ([4]; Rate 140 g/ha) | Plant response rating, Soybean ([4]; Rate 280 g/ha) | Plant response rating, Soybean ([4]; Rate 560 g/ha) | Plant response rating, Soybean ([4]; Rate 1120 g/ha) | Sunflower plant response rating [5] | further results |
| --- | --- | --- | --- | --- | --- | --- | --- | --- | --- | --- | --- | --- | --- | --- |
| CCN(CC)C(=O)n1oc(=O)n(-c2c(C)cccc2C)c1=O [Compound 2] | – | – | – | – | – | – | – | – | – | – | – | – | – | Plant response rating, Barnyardgrass ([1]; Postemergence, Rate 1000 g/ha): 8; Plant response rating, Barnyardgrass ([1]; Pre-emergence, Rate 2000 g/ha): 9 |
| CC(C)N(C(=O)n1oc(=O)n(C)c1=O)c1ccc(F)cc1 [Compound 138] | 0 | 15 | 80 | 85 | 0 | 0 | 50 | 70 | 10 | 30 | 30 | 40 | 0 | Plant response rating, Sunflower ([5]; Rate 125 g/ha): 0 |
| CC(C)N(C(=O)n1oc(=O)n(C2CC2)c1=O)c1ccc(F)cc1 [Compound 242] | 40 | 60 | 80 | 85 | 0 | 0 | 10 | 80 | 20 | 25 | 25 | 65 | 0 | Plant response rating, Sunflower ([5]; Rate 62 g/ha): 10; Plant response rating, Sunflower ([5]; Rate 125 g/ha, 0 is no effect, 100 is complete control): 10; Plant response rating, Sunflower ([5]; Rate 500 g/ha, 0 is no effect, 100 is complete control): 20; ABUTH Observed [6, 10]: 50%; ABUTH Observed [6, 11]: 70%; CHEAL Observed [7, 10]: 30%; CHEAL Observed [7, 11]: 100%; AMATA Observed [8, 10]: 20%; AMATA Observed [8, 11]: 55%; DIGSA Observed [9, 10]: 100%; DIGSA Observed [9, 11]: 100% |
